# Results published in article PMC8533299, “Synthesis, In Silico Study, and Anti-Cancer Activity of Thiosemicarbazone Derivatives” (Biomedicines, 2021).
# “And” between values parts separate entries of the source, which are not always exact repeats. Equal entries are not always repeated.
# Columns and labels:
# [1] = test system: gene expression in MCF-7 human breast cancer cells; assay: RT-qPCR gene expression in MCF-7 cells; format: cell-based
# Experimental: (§1) Total mRNA was isolated and extracted by Trizol reagent as described in an earlier method. RevertAid First Strand cDNA synthesis kit (Thermo Fisher Scientific, Waltham, MA, USA) was used to synthesize cDNA in a total reaction volume of 20 μL containing oligo-dT primers, RiboLock RNase inhibitor, and reverse transcriptase. Gene-specific primers were used to amplify cDNAs in RT-qPCR machine (Applied Biosystems, Waltham, MA, USA).
# [2] = test system: gene expression in B16-F0 melanoma cells; assay: RT-qPCR gene expression in B16-F0 cells; format: cell-based, Mouse
# Experimental: as §1
# [3] = Solubility of the obtained compound in solvents; format: physicochemical
# Experimental: 3-Methoxybenzaldehyde thiosemicarbazone (C9H11N3OS; (2E)-2-(3-methoxybenzylidene) hydrazine carbothioamide) (3MBTSc) was prepared by using the previous procedure with slight modifications. It was prepared by refluxing a mixture of thiosemicarbazide ([…], 0.01 mmol) and 3-Methoxybenzaldehyde (2.67 mL, 0.01 mmol) in a mixture of 20 mL distilled water and 20 mL methanol as the solvent medium in the presence of glacial acetic acid (2–3 mL). The reaction mixture was refluxed for about 3–4 h. After cooling, the yellow crystalline solid separated was filtered, washed, and dried. The yield of the compound was 2.16 g and the obtained compound was insoluble in CHCl3, CCl4, CH3CN, H2O, ethanol, and methanol but it was soluble in DMSO and DHF/THF. The following characterization was carried out to confirm the synthesis of 3-Methoxybenzaldehyde thiosemicarbazone by FTIR (cm^−1): v(NH2) 3403s; 3287s; v(-NH) 3150s; 1599s v(C=N); v(C=S) 1246s, 836s, ^1H-NMR (DMSO-d^6, ppm): 11.40 (s, 1H); 8.19 (s, 2H); 6.95–7.44 (m, ar-H); 3.80 (s, 3H), and ^13C-NMR (DMSO-d^6, ppm): 178.9 (s, C=S), 55.76 (s, OCH3), 111-143 (m-Ph-C), 159.6 (s, C=N).
# 4-Nitrobenzaldehyde thiosemicarbazone ((2E)-2-(4-nitrobenzylidene) hydrazine carbothioamide) (4NBTSc) was synthesized using earlier reported methods with slight modifications. A mixture of 1.51 g (0.01 mmol) of 4-Nitrobenzaldehyde, and 0.914 g (0.01 mmol) thiosemicarbazide was stirred for 2 h using 15 mL of methanol and 15 mL of distilled water as a solvent medium. The resulting yellow solution was allowed to cool. Then, a yellow crystalline solid separated was filtered, washed with diethyl ether and dried. The yield of the compound was 2.30 g and the obtained compound was insoluble in CHCl3, CCl4, CH3CN, H2O, ethanol, and methanol but it was soluble in DMSO and DHF/THF. The following characterization was carried out to confirm the synthesis of 4-Nitrobenzaldehyde thiosemicarbazone by FTIR (cm^−1): v(NH2) 3499m; 3373s; v(-NH) 3197s; 1588s; 1343s (v(NO2); v(C=N); v(C=S) 1137s, 750s, ^1H-NMR (DMSO-d^6, ppm): 11.66 (s, 1H); 8.38 (s, 2H); 8.32–8.03 (m, ar-H), and ^13C-NMR (DMSO-d^6, ppm): 179 (s, C=S), 128-141 (m-Ph-C), 148.06(s, C=N), 124.23 (s, CH).
# [4] = MCF-7 cells treated, GAPDH housekeeping gene
# [5] = MCF-7 cells, difference of RQ values
# [6] = B16-F0 cells treated, GAPDH housekeeping gene
# [7] = B16-F0 cells, difference of RQ values
smiles,measurement,setting,value
"COc1cccc(C=NNC(N)=S)c1 [3-MBTSc, 3-Methoxybenzaldehyde thiosemicarbazone]",BCl2 Treated (RQ value),[1]; [4],2.375 ± 0.025
same,BRCA1 Treated (RQ value),[1]; [4],7.13 ± 0.01
same,BRCA2 Treated (RQ value),[1]; [4],1.235 ± 0.005
same,Bax Treated (RQ value),[1]; [4],2.125 ± 0.025
same,Caspase-3 Treated (RQ value),[1]; [4],2.13 ± 0.01
same,Dmp1 Treated (RQ value),[1]; [4],2.1 ± 0.03
same,ER Treated (RQ value),[1]; [4],3.15 ± 0.03
same,Hdm2 Treated (RQ value),[1]; [4],5.26 ± 0.045
same,Myc Treated (RQ value),[1]; [4],3.43 ± 0.015
same,PKC Treated (RQ value),[1]; [4],5.455 ± 0.015
same,PR Treated (RQ value),[1]; [4],1.23 ± 0.02
same,PTEN Treated (RQ value),[1]; [4],3.78 ± 0.02
same,RAS Treated (RQ value),[1]; [4],3.905 ± 0.035
same,p19 Arf Treated (RQ value),[1]; [4],4.575 ± 0.055
same,p21 Treated (RQ value),[1]; [4],3.125 ± 0.025
same,p53 Treated (RQ value),[1]; [4],5.185 ± 0.015
same,pRB Treated (RQ value),[1]; [4],3.11 ± 0.01
same,BCl2 Fold Change (MCF 7 treated-MCF 7 untreated),[1]; [5],0.285 fold
same,BRCA1 Fold Change (MCF 7 treated-MCF 7 untreated),[1]; [5],5.33 fold
same,BRCA2 Fold Change (MCF 7 treated-MCF 7 untreated),[1]; [5],-0.7 fold
same,Bax Fold Change (MCF 7 treated-MCF 7 untreated),[1]; [5],1.4 fold
same,Caspase-3 Fold Change (MCF 7 treated-MCF 7 untreated),[1]; [5],1.53 fold
same,Hdm2 Fold Change (MCF 7 treated-MCF 7 untreated),[1]; [5],-1.98 fold
same,Myc Fold Change (MCF 7 treated-MCF 7 untreated),[1]; [5],-4.02 fold
same,PKC Fold Change (MCF 7 treated-MCF 7 untreated),[1]; [5],-7.64 fold
same,PR Fold Change (MCF 7 treated-MCF 7 untreated),[1]; [5],0.035 fold
same,PTEN Fold Change (MCF 7 treated-MCF 7 untreated),[1]; [5],1.635 fold
same,RAS Fold Change (MCF 7 treated-MCF 7 untreated),[1]; [5],−5.92 fold
same,p19 Arf Fold Change (MCF 7 treated-MCF 7 untreated),[1]; [5],3.24 fold
same,p21 Fold Change (MCF 7 treated-MCF 7 untreated),[1]; [5],0.935 fold
same,p53 Fold Change (MCF 7 treated-MCF 7 untreated),[1]; [5],3.025 fold
same,pRB Fold Change (MCF 7 treated-MCF 7 untreated),[1]; [5],1.51 fold
same,BCl2 Treated (RQ value),[2]; [6],2.14 ± 0.028
same,BRCA1 Treated (RQ value),[2]; [6],1.14 ± 0.028
same,Bax Treated (RQ value),[2]; [6],3.095 ± 0.021
same,Caspase-3 Treated (RQ value),[2]; [6],6.105 ± 0.021
same,Dmp1 Treated (RQ value),[2]; [6],5.19 ± 0.028
same,Fos Treated (RQ value),[2]; [6],3.135 ± 0.021
same,MTS 1 Treated (RQ value),[2]; [6],6.14 ± 0.042
same,Mdm2 Treated (RQ value),[2]; [6],5.105 ± 0.021
same,PKC Treated (RQ value),[2]; [6],5.13 ± 0.028
same,PTEN Treated (RQ value),[2]; [6],4.94 ± 0.028
same,RAS Treated (RQ value),[2]; [6],4.16 ± 0.028
same,p19 Arf Treated (RQ value),[2]; [6],5.125 ± 0.021
same,p21 Treated (RQ value),[2]; [6],5.115 ± 0.021
same,p53 Treated (RQ value),[2]; [6],5.185 ± 0.035
same,pRB Treated (RQ value),[2]; [6],1.105 ± 0.007
same,BCl2 Fold Change (B16-F0 treated-B16-F0 untreated),[2]; [7],0.050 fold
same,BRCA1 Fold Change (B16-F0 treated-B16-F0 untreated),[2]; [7],-0.660 fold
same,Bax Fold Change (B16-F0 treated-B16-F0 untreated),[2]; [7],0.360 fold
same,Caspase-3 Fold Change (B16-F0 treated-B16-F0 untreated),[2]; [7],3.505 fold and 3.50 fold
same,Dmp1 Fold Change (B16-F0 treated-B16-F0 untreated),[2]; [7],2.700 fold
same,MTS 1 Fold Change (B16-F0 treated-B16-F0 untreated),[2]; [7],4.205 fold
same,Mdm2 Fold Change (B16-F0 treated-B16-F0 untreated),[2]; [7],-2.135 fold
same,PTEN Fold Change (B16-F0 treated-B16-F0 untreated),[2]; [7],2.795 fold
same,p19 Arf Fold Change (B16-F0 treated-B16-F0 untreated),[2]; [7],3.790 fold
same,p21 Fold Change (B16-F0 treated-B16-F0 untreated),[2]; [7],2.925 fold
same,p53 Fold Change (B16-F0 treated-B16-F0 untreated),[2]; [7],3.025 fold
same,pRB Fold Change (B16-F0 treated-B16-F0 untreated),[2]; [7],-0.495 fold
same,"solubility in CHCl3, CCl4, CH3CN, H2O, ethanol, and methanol",[3],insoluble
same,solubility in DMSO and DHF/THF,[3],soluble
